For experiment [1], the target named is T1, GRK2 (Homo sapiens, UniProt P25098).
T1 sequence (P25098 1-689): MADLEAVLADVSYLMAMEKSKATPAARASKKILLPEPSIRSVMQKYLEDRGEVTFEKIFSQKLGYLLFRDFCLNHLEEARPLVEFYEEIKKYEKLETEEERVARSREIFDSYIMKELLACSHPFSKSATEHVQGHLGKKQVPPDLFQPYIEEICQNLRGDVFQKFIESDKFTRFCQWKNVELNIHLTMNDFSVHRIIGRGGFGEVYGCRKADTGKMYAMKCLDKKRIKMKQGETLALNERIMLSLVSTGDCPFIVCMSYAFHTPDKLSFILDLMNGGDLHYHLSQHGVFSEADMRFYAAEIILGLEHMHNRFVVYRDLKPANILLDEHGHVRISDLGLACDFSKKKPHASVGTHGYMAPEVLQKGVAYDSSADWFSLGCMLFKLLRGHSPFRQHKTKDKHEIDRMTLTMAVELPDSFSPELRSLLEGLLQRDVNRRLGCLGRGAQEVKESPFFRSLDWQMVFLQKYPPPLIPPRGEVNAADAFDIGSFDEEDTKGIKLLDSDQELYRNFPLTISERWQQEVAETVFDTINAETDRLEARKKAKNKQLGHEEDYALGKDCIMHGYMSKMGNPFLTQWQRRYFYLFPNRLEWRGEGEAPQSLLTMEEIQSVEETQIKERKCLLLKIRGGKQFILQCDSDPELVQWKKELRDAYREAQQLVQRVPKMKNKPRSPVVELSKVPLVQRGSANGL
As to the kind of experiment: GRK2 Degradation Assay and Western Blot in PAXF1657 cells. In kind it is cell-based. Details: endogenous in cells; host or cells: PAXF1657. Particulars: for inhibition at 0.3 µM: read-out: % GRK2 degradation at 0.3 uM in PAXF1657 EV (24 hrs); for inhibition at 1 µM: read-out: % GRK2 degradation at 1 uM in PAXF1657 EV (24 hrs); for inhibition at 3 µM: read-out: % GRK2 degradation at 3 uM in PAXF1657 EV (24 hrs). In outline: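 PAXF1657 cells grown to 70% confluency, then treated with compounds at 0–10 μM for 6 to 24 h at 37 °C. Lysates in PBS with 1% NP40 run on SDS-PAGE. GRK2 protein detected by western blot with β-actin as loading reference, using ECL chemiluminescence.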

Another experiment has as its system PAXF1657 KO Clone #4. As to the kind of experiment: 7-day cellular proliferation assay (CellTiter-Glo), PAXF1657 KO Clone #4. The class given is cell-based. Particulars: 168 h, 7-day, read-out: 7-day proliferation assay: IC50 GeoMean (uM) [Cell Line: PAXF1657 KO Clone #4]. The procedure, abridged: (§1)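 Seven-day growth in PAXF1657 lines engineered for GRK2 overexpression or knockout, measured by CellTiter-Glo; compounds tested at 30 μM-0.0002 μM final and replenished once at day 3.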

For experiment [2], the target named is T1, GRK2. The experiment in a line: Second ADPGlo GRK2 Inhibition Assay (Example 3). The conditions noted are these: ADP-Glo, 20 μM ATP; read-out: Second ADPGlo Enzymatic GRK2 Assay: IC50 (nM) (Example 3). In kind it is biochemical. As to the method:
Assay: GRK2 (2 nM) was incubated with ATP (20 μM) and GRKtide (1.2 mg/mL) in 11 μL of assay buffer (see above) for 180 min at room temperature. Compounds were dissolved in 100% DMSO, serially diluted 3.16-fold from 100 μM with 10 concentration points and transferred as 100× into assay plate (final compounds concentration in the reaction plate from 1 μM).
Materials: GRK2 was purchased from SignalChem (Cat #A14-10G, Lot #X645-3). Substrate GRKtide was from SignalChem (Cat #G46-58, Lot #R339-6). ADP-Glo Kinase Assay from Promega (Cat #V9102). Assay buffer consisted of 20 mM HEPES (pH7.5), 20 mM MgCl2, 0.01% Tween-20, 0.05 mM DDT. 384-well white plates were from Corning (Cat #4513).
HTS protocol: Add 5.5 μL of 2× substrate-enzyme mix into all columns except of 1-2 and 24 of reaction plate. Spin 15 seconds at 200 g. Transfer 1 ul of compounds from the plate with serial dilutions (384 well plate with 22 uL of compound in columns 3-22/DMSO solution 1-2,23-24) to Dilution plate (384 well plate with 49 uL of buffer with 2×40 μM ATP). After mixing transfer 5.5 ul from Dilution plate to Reaction plate (to 5.5 μL of 2× substrate-enzyme mix). Spin 15 seconds at 200 g and incubate for 180 min at room temperature with sealing. Add 3 μL ADP-Glo reagent to all the wells. Spin 15 seconds at 200 g and incubate for 40 min at room temperature. Add 6 μL Detection solution to all the wells. Incubate for 30 min at room temperature. Read plate using ClarioStar Plus (BMG).
Data Analysis: Data were analyzed in GraphPad Prism 5.0.2. Each HTS plate contains compounds in columns 3-22, controls (enzyme, no compound) in column 23, and blanks (no enzyme) in columns 2. HTS percent inhibition was calculated for each compound from the signal in luminescence units and the mean of the plate controls and the mean of the plate blanks using the following equation: % Inhibition=100*(1-(signal-blank mean)/(control mean-blank mean)).

The subject of the next experiment is PAXF1657 EV. The experiment in a line: 7-day cellular proliferation assay (CellTiter-Glo), PAXF1657 EV. The class given is cell-based. The conditions noted are these: 168 h, 7-day, read-out: 7-day proliferation assay: IC50 GeoMean (uM) [Cell Line: PAXF1657 EV]. In outline:
as §1

Bounds are passed on as bounds.

The results in this text go back to patent US20240174637A1, “DEGRADERS OF GRK2 AND USES THEREOF” (Sonata Therapeutics, Inc., priority 2021, published 2024).

Take `Cn1c(CNc2cccc(C(=O)NCc3cccc(OCCCCCCCn4cc(CCCCC(=O)Nc5cccc6c5CN(C5CCC(=O)NC5=O)C6=O)nn4)c3)c2)nnc1-c1ccncn1` (stereo not shown) [Compound D60]: at GRK2 [1] (PAXF1657 EV, 24 hrs), the inhibition at 0.3 µM was -3%, the inhibition at 1 µM was 13% and the inhibition at 3 µM was 69%. In addition, the IC50 in the experiment on PAXF1657 KO Clone #4 was over 10 µM. On GRK2 [2], the IC50 was under 100 nM. Besides, in the experiment on PAXF1657 EV, the IC50 was over 10 µM.

On to `Cn1c(CNc2cccc(C(=O)NCc3cccc(OCCCCCCn4cc(CCCCC(=O)Nc5cccc6c5CN(C5CCC(=O)NC5=O)C6=O)nn4)c3)c2)nnc1-c1ccncn1` (stereo not shown) [Compound D62], for which, on GRK2 [1] (PAXF1657 EV, 24 hrs), the inhibition at 0.3 µM came to 35%, the inhibition at 1 µM was 56% and the inhibition at 3 µM stood at 75%. For the same compound, the IC50 in the experiment on PAXF1657 KO Clone #4 was over 10 µM. For the same compound, at GRK2 [2], the IC50 is under 100 nM. Besides, the IC50 in the experiment on PAXF1657 EV is over 10 µM.

For the compound `Cn1c(CNc2cccc(C(=O)NCc3ccc(OCCCCCCOCCOCCOCCCCCC(=O)Nc4cccc5c4CN(C4CCC(=O)NC4=O)C5=O)cc3)c2)nnc1-c1ccncn1` (stereo not shown) [Compound D65], the inhibition at 0.3 µM on GRK2 [1] (PAXF1657 EV, 24 hrs) was found to be 36%. Also, the inhibition at 1 µM at GRK2 [1] (PAXF1657 EV, 24 hrs) turned out to be 64%. For the same compound, the inhibition at 3 µM at GRK2 [1] (PAXF1657 EV, 24 hrs) came to 67%. Also, the IC50 is over 10 µM in the experiment on PAXF1657 KO Clone #4, under 100 nM at GRK2 [2] and under 1 µM with PAXF1657 EV.

As to `Cn1c(CNc2cccc(C(=O)NCc3cccc(OCCCCCCOCCOCCOCCCCCC(=O)Nc4cccc5c4CN(C4CCC(=O)NC4=O)C5)c3)c2)nnc1-c1ccncn1` (stereo not shown) [Compound D73], the “% GRK2 degradation at 0.03 uM in PAXF1657 EV (24 hrs)” value at GRK2 [1] (0.03 uM, PAXF1657 EV, 24 hrs) came out at 15%. Moreover, the “% GRK2 degradation at 0.1 uM in PAXF1657 EV (24 hrs)” value on GRK2 [1] (0.1 uM, PAXF1657 EV, 24 hrs) amounted to 28%. Further, on GRK2 [1] (PAXF1657 EV, 24 hrs), the inhibition at 0.3 µM was determined as 48%, the inhibition at 1 µM is 67% and the inhibition at 3 µM worked out at 76%. In addition, on GRK2 [1] (10 uM, PAXF1657 EV, 24 hrs), the “% GRK2 degradation at 10 uM in PAXF1657 EV (24 hrs)” value stood at 76%. Further, the “GRK2 degradation, dose dependence (FIGS. 1A-1D)” value at GRK2 [1] (24-hour treatment in PAXF1657 cells) is “Dose dependent”. Further, the IC50 with PAXF1657 KO Clone #4 is over 10 µM. For the same compound, the IC50 on GRK2 [2] was under 100 nM. In the experiment with PAXF1657 EV, the IC50 was in the range of 1 to 10 µM.

With `Cc1ncsc1-c1ccc(CNC(=O)[C@@H]2C[C@@H](O)CN2C(=O)[C@@H](NC(=O)CCCOCCOCCOCCCCCCOc2cccc(CNC(=O)c3cccc(NCc4nnc(-c5ccncn5)n4C)c3)c2)C(C)(C)C)cc1` [Compound D77], on GRK2 [1] (PAXF1657 EV, 24 hrs), the inhibition at 0.3 µM was -4%, the inhibition at 1 µM is -1% and the inhibition at 3 µM was -7%. The IC50 in the experiment on PAXF1657 KO Clone #4 is over 10 µM. Further, the IC50 at GRK2 [2] was under 100 nM. Moreover, in the experiment with PAXF1657 EV, the IC50 is under 1 µM.

Take `Cc1ncsc1-c1ccc(CNC(=O)[C@@H]2C[C@@H](O)CN2C(=O)[C@@H](NC(=O)CCCCc2cn(CCCCCCCOc3cccc(CNC(=O)c4cccc(NCc5nnc(-c6ccncn6)n5C)c4)c3)nn2)C(C)(C)C)cc1` [Compound D82]: on GRK2 [1] (PAXF1657 EV, 24 hrs), the inhibition at 0.3 µM is -1%, the inhibition at 1 µM was 28% and the inhibition at 3 µM was found to be 57%. Further, the IC50 in the experiment with PAXF1657 KO Clone #4 is over 10 µM. Besides, the IC50 on GRK2 [2] was under 100 nM. The IC50 in the experiment with PAXF1657 EV was under 1 µM.

For the compound `Cc1ncsc1-c1ccc(CNC(=O)[C@@H]2C[C@@H](O)CN2C(=O)[C@@H](NC(=O)CCCc2cn(CCCCCCCOc3cccc(CNC(=O)c4cccc(NCc5nnc(-c6ccncn6)n5C)c4)c3)nn2)C(C)(C)C)cc1` [Compound D83], at GRK2 [1] (PAXF1657 EV, 24 hrs), the inhibition at 0.3 µM was 2%, the inhibition at 1 µM stood at 25% and the inhibition at 3 µM turned out to be 39%. Also, the IC50 with PAXF1657 KO Clone #4 is over 10 µM. Also, the IC50 at GRK2 [2] is under 100 nM. Moreover, the IC50 in the experiment on PAXF1657 EV was 1 to 10 µM.

With `Cc1ncsc1-c1ccc(CNC(=O)[C@@H]2C[C@@H](O)CN2C(=O)[C@@H](NC(=O)COCCCOCCCCCOc2cccc(CNC(=O)c3cccc(NCc4nnc(-c5ccncn5)n4C)c3)c2)C(C)(C)C)cc1` [Compound D85, (2S,4R)-1-((S)-3,3-dimethyl-2-(2-(3-((5-(3-((3-(((4-methyl-5-(pyrimidin-4-yl)-4H-1,2,4-triazol-3-yl)methyl)amino)benzamido)methyl)phenoxy)pentyl)oxy)propoxy)acetamido)butanoyl)-4-hydroxy-N-(4-(4-methylthiazol-5-yl)benzyl)pyrrolidine-2-carboxamide], at GRK2 [1] (PAXF1657 EV, 24 hrs), the inhibition at 0.3 µM was 17%, the inhibition at 1 µM was determined as 34% and the inhibition at 3 µM was determined as 30%. Besides, the IC50 in the experiment on PAXF1657 KO Clone #4 is over 10 µM. The IC50 at GRK2 [2] is under 100 nM. The IC50 with PAXF1657 EV lay in the range of 1 to 10 µM.

In the case of `Cc1ncsc1-c1ccc(CNC(=O)[C@@H]2C[C@@H](O)CN2C(=O)[C@@H](NC(=O)CCCCCCOc2cccc(CNC(=O)c3cccc(NCc4nnc(-c5ccncn5)n4C)c3)c2)C(C)(C)C)cc1` [Compound D96], on GRK2 [1] (PAXF1657 EV, 24 hrs), the inhibition at 0.3 µM stood at 19%. The inhibition at 1 µM on GRK2 [1] (PAXF1657 EV, 24 hrs) worked out at 31%. Moreover, on GRK2 [1] (PAXF1657 EV, 24 hrs), the inhibition at 3 µM was found to be 6%. The IC50 in the experiment on PAXF1657 KO Clone #4 is over 10 µM; on GRK2 [2], under 100 nM; in the experiment with PAXF1657 EV, 1 to 10 µM.

Take `Cc1ncsc1-c1ccc(CNC(=O)[C@@H]2C[C@@H](O)CN2C(=O)[C@@H](NC(=O)CCCOc2cccc(CNC(=O)c3cccc(NCc4nnc(-c5ccncn5)n4C)c3)c2)C(C)(C)C)cc1` [Compound D97]: on GRK2 [1] (PAXF1657 EV, 24 hrs), the inhibition at 1 µM stood at 11%. For the same compound, the IC50 in the experiment with PAXF1657 KO Clone #4 is 1 to 10 µM; on GRK2 [2] it was under 100 nM; in the experiment with PAXF1657 EV, over 10 µM.

For the compound `Cc1ncsc1-c1ccc(CNC(=O)[C@@H]2C[C@@H](O)CN2C(=O)[C@@H](NC(=O)CCCCCOCCOCCOCCCCCCOc2cccc(CNC(=O)c3cccc(NCc4nnc(-c5ccncn5)n4C)c3)c2)C(C)(C)C)cc1` [Compound D99], on GRK2 [1] (PAXF1657 EV, 24 hrs), the inhibition at 1 µM was 44%. On GRK2 [1] (PAXF1657 EV, 24 hrs), the inhibition at 3 µM came out at 13%. Further, the IC50 was 1 to 10 µM in the experiment on PAXF1657 KO Clone #4, under 100 nM at GRK2 [2] and under 1 µM in the experiment with PAXF1657 EV.
